# Legend:
# interferon-beta (IFN-β) [1] = assay: Induction of interferon-beta levels in CT26 cells in the presence of STING agonist DMXAA (FIG. 3); type: cell-based; settings: CT26 mouse colon cancer cells
# [2] = system: NCI-H1373 lung cancer cells; assay: Inhibition of cancer cell growth in NCI-H1373 lung cancer cells (FIG. 2); type: cell-based, human
# interferon-beta (IFN-β) [3] = assay: Induction of interferon-beta levels in RAW264.7 macrophages in the presence of STING agonist DMXAA (FIG. 3); type: cell-based; settings: RAW264.7 mouse macrophages
# PARP7 = PARP7 (Homo sapiens (Human), UniProt Q7Z3E1); assay: Enzymatic assay for inhibition of PARP7: TR-FRET displacement of biotinylated Probe A from the TIPARP active site; type: binding; settings: Table A-1
# Summary of the method: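 Percent inhibition derives from the ratio of 665 to 615 nm emission, which reports how much Probe A remains bound to TIPARP. Plates sat 30 min at 25° C before the time-resolved read (320 nm excitation).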
# CT26 tumors = assay: Inhibition of tumor growth, murine syngeneic model CT26 (subcutaneous dosing); type: in vivo; settings: CT26 in BALB/c mice, vs vehicle (FIG. 6)
# Description: For the CT26 study BALB/c mice were inoculated subcutaneously at the right flank with CT26 cells for tumor development. Four days after tumor inoculation, 36 mice with tumor size ranging from 40-55 mm^3 (average tumor size 47 mm^3) were selected and assigned into 3 groups using stratified randomization with 12 mice in each group based upon their tumor volumes. The treatments were started from the next day post randomization (defined randomization day as day 0) and were treated with vehicle (0.5% methylcellulose+0.2% Tween 80), Compound 98 (500 mg/kg S.C. QD*21 days), Compound 93A (100 mg/kg S.C. BID*21 days) respectively. The tumor sizes were measured three times per week during the treatment. The entire study was terminated on day 21. Mean tumor volume and SEM for both studies are plotted. Statistical significance, calculated using two-tailed unpaired t-tests in which each treatment group was compared to vehicle control, is indicated by an asterisk. Statistics were performed on groups with less than 20% animal loss (D21 for CT26, D17 for 4T1).
# 4T1-luc2-1A4 tumors = assay: Inhibition of tumor growth, murine syngeneic model 4T1 (orthotopic, mammary fat pad); type: in vivo; settings: 4T1 orthotopic in female BALB/c mice, vs vehicle (FIG. 6)
# Excerpt: Example G: Inhibition of Tumor Growth by Treatment with PARP7 Inhibitors For the 4T1 study female BALB/c mice were inoculated orthotopically in the mammary fat pad with 4T1-1uc2-1A4 cells for tumor development. Eight days after tumor inoculation, 45 mice with tumor size ranging from 63-88 mm^3 (average tumor size 67 mm^3) were selected and assigned into 3 groups using stratified randomization with 15 mice in each group based upon their tumor volumes. The treatments were started from the next day post randomization (defined randomization day as D0) and were treated with vehicle (0.5% methylcellulose +0.2% Tween 80), Compound 98 (500 mg/kg S.C. QD*21 days), Compound 93A (100 mg/kg S.C. BID*21 days) respectively. The tumor sizes were measured three times per week during the treatment. The entire study was terminated on D20. Mean tumor volume and SEM for both studies are plotted. Statistical significance, calculated using two-tailed unpaired t-tests in which each treatment group was compared to vehicle control, is indicated by an asterisk. Statistics were performed on groups with less than 20% animal loss (D21 for CT26, D17 for 4T1).
# PARP7, sequence (Q7Z3E1 whole entry): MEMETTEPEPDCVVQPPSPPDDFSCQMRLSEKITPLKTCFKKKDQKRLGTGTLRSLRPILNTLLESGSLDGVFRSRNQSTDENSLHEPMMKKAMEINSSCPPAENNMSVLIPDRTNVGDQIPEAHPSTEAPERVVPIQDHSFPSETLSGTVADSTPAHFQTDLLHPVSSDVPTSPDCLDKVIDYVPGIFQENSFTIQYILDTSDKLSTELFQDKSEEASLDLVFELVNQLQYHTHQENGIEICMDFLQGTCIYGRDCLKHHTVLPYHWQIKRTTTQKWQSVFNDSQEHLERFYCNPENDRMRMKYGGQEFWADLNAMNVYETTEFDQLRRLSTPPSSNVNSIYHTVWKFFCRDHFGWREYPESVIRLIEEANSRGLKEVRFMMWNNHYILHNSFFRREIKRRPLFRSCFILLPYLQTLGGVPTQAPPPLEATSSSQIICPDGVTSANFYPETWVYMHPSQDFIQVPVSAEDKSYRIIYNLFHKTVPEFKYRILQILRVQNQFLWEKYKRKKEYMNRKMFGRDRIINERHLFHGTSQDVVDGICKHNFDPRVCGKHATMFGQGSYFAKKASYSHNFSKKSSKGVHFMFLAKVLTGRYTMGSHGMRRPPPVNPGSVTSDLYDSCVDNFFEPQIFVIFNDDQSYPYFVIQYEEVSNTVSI
Compound,interferon-beta (IFN-β) levels (interferon-beta (IFN-β) [1]),growth of NCI-H1373 lung cancer cells [2],interferon-beta (IFN-β) levels (interferon-beta (IFN-β) [3]),IC50 (PARP7),tumor growth (CT26 tumors; 500 mg/kg S.C. QD*21 days),tumor growth (4T1-luc2-1A4 tumors; 500 mg/kg S.C. QD*21 days),tumor growth (CT26 tumors; 100 mg/kg S.C. BID*21 days),tumor growth (4T1-luc2-1A4 tumors; 100 mg/kg S.C. BID*21 days)
"N#Cc1ccc(N2CCN(C(=O)CCOC[C@@H]3CCCN3c3cn[nH]c(=O)c3C(F)(F)F)CC2)nc1 [Example 98, 6-[4-(3-[[(2S)-1-[6-Oxo-5-(trifluoromethyl)-1,6-dihydropyridazin-4-yl]pyrrolidin-2-yl]methoxy]propanoyl)piperazin-1-yl]pyridine-3-carbonitrile]",induction,dose-dependent decrease in growth,induction,< 100 nM,significantly reduce tumor growth,significantly reduce tumor growth,–,–
"N#Cc1ccc(N2CCN(C(=O)CCOC[C@@H]3c4ccccc4CN3c3cn[nH]c(=O)c3C(F)(F)F)CC2)nc1 (single isomer, unassigned) [Example 93 Isomer A]",–,dose-dependent decrease in growth,–,< 100 nM,–,–,significantly reduce tumor growth,significantly reduce tumor growth

# Reference: patent US10550105B2 (Ribon Therapeutics Inc., priority 2018, dated 2020)
